The results in this text go back to US9243039B2, “Bipartite inhibitors of bacterial RNA polymerase: Sal-target-inhibitor/nucleoside-analog-inhibitor conjugates” (priority 2012, dated 2016).

Series [1] deals with Sal-resistant mutants. Nature of the series: Cross-resistance of Sal-resistant mutants to other RNAP inhibitors. It counts as cell-based. The settings on record: disclosed herein.
For series [2], the target named is Escherichia coli RNAP (Escherichia coli, UniProt P0A8T7+P0A8V2). Nature of the series: Fluorescence-detected RNAP assay, Escherichia coli RNAP. It counts as biochemical. The settings on record: for IC50: fluorescent-detected RNAP assays. The procedure:
Fluorescence-detected RNAP assays with Escherichia coli RNAP were performed by a modification of the procedure of Kuhlman et al., 2004 [Kuhlman et al., Anal. Biochem. 324:183-190, 2004]. Reaction mixtures contained (20 μl): […] test compound, 75 nM Escherichia coli RNAP […] holoenzyme, 20 nM 384 by DNA fragment containing the bacteriophage T4 N25 promoter, 100 μM ATP, 100 μM GTP, 100 μM UTP, 100 μM CTP, 50 mM Tris-HCl, pH 8.0, 100 mM KCl, 10 mM MgCl2, 1 mM DTT, 10 μg/ml bovine serum albumin, and 5.5% glycerol. Reaction components other than DNA and NTPs were pre-incubated for 10 min at 37° C. Reactions were carried out by addition of DNA and incubation for 5 min at 37° C., followed by addition of NTPs and incubation for 60 min at 37° C. DNA was removed by addition of 1 μl 5 mM CaCl2 and 2 U DNaseI (Ambion, Inc.), followed by incubation for 90 min at 37° C. RNA was quantified by addition of 100 μl RiboGreen RNA Quantitation Reagent (Invitrogen, Inc.; 1:500 dilution in Tris-HCl, pH 8.0, 1 mM EDTA), followed by incubation for 10 min at 25° C., followed by measurement of fluorescence intensity [excitation wavelength=485 nm and emission wavelength=535 nm; QuantaMaster QM1 spectrofluorometer (PTI, Inc.)].
(§1) Half-maximal inhibitory concentrations (IC50s) were calculated by non-linear regression in SigmaPlot (SPSS, Inc.).

Series [3] relates to Vero E6 ATCC CRL1586. Description: Cytotoxicity to mammalian cells in culture (CellTiter96). The following applies: mammalian cells in culture. It counts as cell-based. An excerpt: MICs for mammalian cells (Vero E6) in culture were quantified using CellTiter96 assay (Promega. Inc.; procedures as specified by the manufacturer). Screening data for SalA and SalB (compounds 1 and 2) and representative compounds of this invention (compounds 3-9) are presented in Tables 1-2: […]

In series [4] the test system is Enterobacter cloacae ATCC 13047. Description: Antibacterial activity, broth microdilution, Enterobacter cloacae. It counts as cell-based. The following applies: Enterobacter cloacae, ATCC13047; minimal concentration resulting in ≧50% inhibition of bacterial growth. The source says: (§2) Antibacterial activity was quantified using broth microdilution [Clinical and Laboratory Standards Institute (CLSUNCCLS), Methods for Dilution Antimicrobial Susceptibility Tests for Bacteria That Grow Aerobically; Approved Standard, Eighth Edition. CLIS Document M07-A8 (CLIS, Wayne Pa.), 2009]. Assays with Enterobacter cloacae ATCC 13047, Pseudomonas aeruginosa ATCC10145, and Escherichia coli D21f2to1C, employed a starting cell density of 2-5×10^5 cfu/ml, Mueller Hinton II cation adjusted broth (BD Biosciences, Inc.), and an air atmosphere. Assays with Haemophilus influenzae ATCC49247 and Neisseria gonorrhoeae ATCC 19424 employed a starting cell density of 2-5×10^5 cfu/ml, Haemophilus Test Medium broth (Barry et al., 1993) and a 5% CO2/95% air atmosphere. MIC50 was defined as the minimal concentration resulting in ≧50% inhibition of bacterial growth.

Series [5] concerns human RNAP I/II/III. Nature of the series: Radiochemical assay with human RNAP I, II and III (HeLaScribe nuclear extract). It counts as biochemical. The method, then:
Radiochemical assays with human RNAP I, II, and III were performed essentially as described [Sawadogo and Roeder, Cell 43:165-75, 1985]. Reaction mixtures contained (20 μl): 0-100 μM test compound, 8 U HeLaScribe Nuclear Extract (Promega, Inc.), 1 μg human placental DNA (Sigma-Aldrich), 400 μM ATP, 400 μM [α^32P]UTP (0.11 Bq/fmol), 400 μM CTP, 400 μM GTP, 50 mM Tris-HCl, pH 8.0, 7 mM HEPES-NaOH, 70 mM (NH4)2SO4, 50 mM KCl, 12 mM MgCl2, 5 mM DTT, 0.1 mM EDTA, 0.08 mM phenylmethylsulfonyl fluoride, and 16% glycerol. Reaction components other than DNA and NTPs were pre-incubated 10 min at 30° C., DNA was added and reaction mixtures were incubated 15 min at 30° C., NTPs were added and reaction mixtures were incubated 60 min at 30° C. Reaction mixtures were spotted on DE81 filter discs (Whatman, Inc.; pre-wetted with water) and incubated 1 min at room temperature. Filters were washed with 3×3 ml Na2HPO4, 2×3 ml water, and 3 ml ethanol, using a filter manifold (Hoefer, Inc.). Filters were placed in scintillation vials containing 10 ml Scintiverse BD Cocktail (Thermo Fisher, Inc.), and radioactivity was quantified by scintillation counting (LS6500; Beckman-Coulter, Inc.).
as §1

The subject of series [6] is Escherichia coli D21f2toIC. Description: Antibacterial activity, broth microdilution, Escherichia coli D21f2tolC. It is filed as cell-based. The following applies: for MIC50: Escherichia coli, D21F2TOIC, read-out: MIC50 Escherichia coli D21f2toIC.
Excerpt: as §2
(In general: In broth dilution the organism is exposed to a series of concentrations in liquid medium.)

Values after ≈ are worked out from the molar mass of the structure shown. *1 amine or outer side, *2 acyl side, *3 side chain or, on linkers, in order; H or OH if unused. Where a SMILES comes first, the peptide text is derived from it. Bridges are numbered along the chain shown (N, C = ends). [ ]: non-standard residue; d: D form. The star is where a group is joined. X4 = C[C@@H](Oc1ccc([C@H](N[*:1])C(=O)[*:2])cc1)[C@](O)(/C=C/C(=O)[*:3])CNCCCCCCNC(=O)OC(C)(C)C; X5 = C[C@@H](Oc1ccc([C@H](N[*:1])C(=O)[*:2])cc1)[C@](O)(/C=C/C(=O)[*:3])CNCCCNC(=O)OC(C)(C)C; X2 = CCCCOC[C@@](O)(/C=C/C(=O)[*:3])[C@@H](C)Oc1ccc([C@H](N[*:1])C(=O)[*:2])cc1; X1 = C[C@@H](Oc1ccc([C@H](N[*:1])C(=O)[*:2])cc1)[C@](O)(/C=C/C(=O)[*:3])CBr; X6 = CCCCOC(/C=C/C(=O)[*:3])(CO)[C@@H](C)Oc1ccc([C@H](N[*:1])C(=O)[*:2])cc1; X3 = C[C@@H](Oc1ccc([C@H](N[*:1])C(=O)[*:2])cc1)[C@](O)(/C=C/C(=O)[*:3])CO; Pentanoyl(2R-Me,3R-OH,4-Me) = CC(C)[C@@H](O)[C@@H](C)C(=O)*; d(aIle) = CC[C@H](C)[C@@H](N)C(=O)O; d(aThr) = C[C@@H](O)[C@@H](N)C(=O)O; NMeF = CN[C@@H](Cc1ccccc1)C(=O)O

Chain of Escherichia coli RNAP (P0A800 whole entry, the tested form may be a part): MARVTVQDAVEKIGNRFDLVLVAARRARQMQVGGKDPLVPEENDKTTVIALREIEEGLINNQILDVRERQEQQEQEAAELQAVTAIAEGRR
Chain of Escherichia coli RNAP (P00579 whole entry, further chain, the tested form may be a part): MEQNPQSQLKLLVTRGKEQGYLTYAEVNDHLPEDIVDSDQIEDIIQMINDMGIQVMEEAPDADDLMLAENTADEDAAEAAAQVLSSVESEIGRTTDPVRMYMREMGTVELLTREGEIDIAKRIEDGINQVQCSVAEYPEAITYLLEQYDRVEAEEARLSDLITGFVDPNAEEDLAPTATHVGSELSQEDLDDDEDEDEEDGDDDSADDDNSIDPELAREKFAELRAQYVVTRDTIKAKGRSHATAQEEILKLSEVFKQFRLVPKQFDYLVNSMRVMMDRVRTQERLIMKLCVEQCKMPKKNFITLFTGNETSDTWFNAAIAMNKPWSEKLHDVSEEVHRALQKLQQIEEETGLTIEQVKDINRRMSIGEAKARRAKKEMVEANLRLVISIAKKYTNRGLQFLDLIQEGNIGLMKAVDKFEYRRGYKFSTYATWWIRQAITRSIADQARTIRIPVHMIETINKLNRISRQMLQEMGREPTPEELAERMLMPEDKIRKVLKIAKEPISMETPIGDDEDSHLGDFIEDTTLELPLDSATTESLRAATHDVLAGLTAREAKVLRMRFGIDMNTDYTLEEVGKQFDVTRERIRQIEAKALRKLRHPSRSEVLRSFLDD
Chain of Escherichia coli RNAP (P0A8V2 whole entry, the tested form may be a part): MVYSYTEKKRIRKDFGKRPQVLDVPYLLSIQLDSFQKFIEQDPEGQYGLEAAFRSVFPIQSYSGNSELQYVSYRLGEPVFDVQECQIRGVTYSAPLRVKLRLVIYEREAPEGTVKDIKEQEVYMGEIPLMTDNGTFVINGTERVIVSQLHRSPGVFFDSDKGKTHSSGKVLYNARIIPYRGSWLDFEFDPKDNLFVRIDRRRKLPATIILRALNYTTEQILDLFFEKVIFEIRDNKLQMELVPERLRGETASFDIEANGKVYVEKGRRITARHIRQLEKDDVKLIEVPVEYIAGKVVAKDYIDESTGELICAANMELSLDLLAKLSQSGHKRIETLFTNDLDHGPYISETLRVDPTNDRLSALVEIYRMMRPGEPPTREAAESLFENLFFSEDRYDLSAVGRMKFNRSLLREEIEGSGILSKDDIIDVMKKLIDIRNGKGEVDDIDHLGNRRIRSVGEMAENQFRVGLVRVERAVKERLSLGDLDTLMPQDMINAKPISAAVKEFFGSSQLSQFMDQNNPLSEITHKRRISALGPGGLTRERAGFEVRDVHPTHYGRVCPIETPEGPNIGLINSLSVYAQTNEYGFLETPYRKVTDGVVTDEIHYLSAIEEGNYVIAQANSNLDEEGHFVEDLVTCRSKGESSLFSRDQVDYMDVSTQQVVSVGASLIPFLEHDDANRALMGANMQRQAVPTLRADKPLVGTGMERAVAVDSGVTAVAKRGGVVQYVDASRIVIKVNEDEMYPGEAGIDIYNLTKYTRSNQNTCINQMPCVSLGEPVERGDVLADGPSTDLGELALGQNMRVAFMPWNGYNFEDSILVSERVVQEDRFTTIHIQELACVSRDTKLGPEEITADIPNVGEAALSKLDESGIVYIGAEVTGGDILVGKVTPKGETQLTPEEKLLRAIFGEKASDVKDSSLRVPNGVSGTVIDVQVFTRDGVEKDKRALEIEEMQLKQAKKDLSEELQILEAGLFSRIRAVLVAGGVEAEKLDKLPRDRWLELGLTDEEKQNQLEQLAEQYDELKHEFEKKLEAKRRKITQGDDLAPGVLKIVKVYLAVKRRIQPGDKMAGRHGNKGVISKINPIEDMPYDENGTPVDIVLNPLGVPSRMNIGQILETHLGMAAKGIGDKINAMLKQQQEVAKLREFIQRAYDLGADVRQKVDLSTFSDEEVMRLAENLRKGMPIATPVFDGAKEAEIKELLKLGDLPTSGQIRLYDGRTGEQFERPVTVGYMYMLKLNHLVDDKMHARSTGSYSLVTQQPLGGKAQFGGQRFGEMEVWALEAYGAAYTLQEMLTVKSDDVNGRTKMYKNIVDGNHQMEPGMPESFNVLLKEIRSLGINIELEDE
Chain of Escherichia coli RNAP (P0A8T7 whole entry, the tested form may be a part): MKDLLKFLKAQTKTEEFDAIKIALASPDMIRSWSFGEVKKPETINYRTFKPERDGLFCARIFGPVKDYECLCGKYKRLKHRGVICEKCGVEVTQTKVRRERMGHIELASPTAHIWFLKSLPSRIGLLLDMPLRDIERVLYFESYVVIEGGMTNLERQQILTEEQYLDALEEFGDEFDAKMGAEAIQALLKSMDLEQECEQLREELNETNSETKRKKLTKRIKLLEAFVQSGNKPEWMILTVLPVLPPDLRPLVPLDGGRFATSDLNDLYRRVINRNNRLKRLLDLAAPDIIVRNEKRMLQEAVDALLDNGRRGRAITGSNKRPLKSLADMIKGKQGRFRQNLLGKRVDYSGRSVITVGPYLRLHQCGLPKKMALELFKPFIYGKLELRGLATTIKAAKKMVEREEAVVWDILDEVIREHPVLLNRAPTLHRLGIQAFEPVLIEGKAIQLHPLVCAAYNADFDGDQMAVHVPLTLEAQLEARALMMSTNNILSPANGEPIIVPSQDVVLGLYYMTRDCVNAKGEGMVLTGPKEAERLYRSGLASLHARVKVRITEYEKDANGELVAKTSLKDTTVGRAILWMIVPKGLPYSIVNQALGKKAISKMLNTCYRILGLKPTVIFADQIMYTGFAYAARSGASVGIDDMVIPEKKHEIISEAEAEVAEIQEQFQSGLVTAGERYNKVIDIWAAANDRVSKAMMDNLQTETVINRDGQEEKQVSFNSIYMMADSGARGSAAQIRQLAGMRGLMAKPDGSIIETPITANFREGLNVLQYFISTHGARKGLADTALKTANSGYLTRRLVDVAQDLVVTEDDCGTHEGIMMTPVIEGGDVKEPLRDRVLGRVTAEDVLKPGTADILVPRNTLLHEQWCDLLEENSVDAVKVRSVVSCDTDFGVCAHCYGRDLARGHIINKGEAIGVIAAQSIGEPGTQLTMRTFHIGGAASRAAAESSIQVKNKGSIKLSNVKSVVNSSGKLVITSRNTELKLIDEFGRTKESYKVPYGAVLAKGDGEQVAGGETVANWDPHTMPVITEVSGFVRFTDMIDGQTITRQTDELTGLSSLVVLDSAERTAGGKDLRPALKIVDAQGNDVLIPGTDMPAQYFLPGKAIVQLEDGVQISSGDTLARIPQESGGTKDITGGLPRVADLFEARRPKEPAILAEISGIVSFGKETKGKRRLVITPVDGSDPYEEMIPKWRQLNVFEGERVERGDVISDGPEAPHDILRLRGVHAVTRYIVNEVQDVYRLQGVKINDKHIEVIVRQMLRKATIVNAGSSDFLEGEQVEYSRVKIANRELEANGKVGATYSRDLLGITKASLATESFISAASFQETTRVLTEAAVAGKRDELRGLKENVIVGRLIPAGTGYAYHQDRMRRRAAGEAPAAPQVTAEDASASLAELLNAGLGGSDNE
Chain of Escherichia coli RNAP (P0A7Z4 whole entry, further chain, the tested form may be a part): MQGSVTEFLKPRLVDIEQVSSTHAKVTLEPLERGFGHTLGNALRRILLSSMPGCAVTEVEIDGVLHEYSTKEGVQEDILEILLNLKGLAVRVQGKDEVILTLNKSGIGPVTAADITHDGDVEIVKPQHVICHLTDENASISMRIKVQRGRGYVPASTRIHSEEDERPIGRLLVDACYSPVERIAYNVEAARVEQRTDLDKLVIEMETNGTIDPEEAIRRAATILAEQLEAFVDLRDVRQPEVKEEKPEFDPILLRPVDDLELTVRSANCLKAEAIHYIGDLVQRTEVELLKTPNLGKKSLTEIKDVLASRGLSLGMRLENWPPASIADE

On to myxopyronin, for which the “cross-resistance of Sal-resistant mutants to the compound” value (“cross-resistance” for short) in series [1] is “do not exhibit cross-resistance”.
The IC50 is the point on the concentration scale where inhibition reaches its midpoint. A low value points to greater potency in that assay. As a reminder, the MIC50 is the lowest concentration that inhibits either 50% of growth or 50% of the strains tested, depending on the study. As for `CC[C@H](C)[C@H]1NC(=O)[C@@H](NC(=O)[C@H](C)[C@H](O)C(C)C)[C@@H](C)OC(=O)[C@@H]2COC(=O)CNC(=O)/C=C/[C@](O)(CBr)[C@@H](C)Oc3ccc(cc3)[C@H](NC1=O)C(=O)N(C)[C@@H](Cc1ccccc1)C(=O)N[C@H]([C@@H](C)O)C(=O)N2` [Sal-Br (3)] ({Pentanoyl(2R-Me,3R-OH,4-Me)}-T[d(aIle)][X1][NMeF][d(aThr)]S; ester 1-C; linker 3-6 via G), the 50% inhibitory concentration (IC50) in series [2] is 3 µM; in series [5], more than 100 µM. For the same compound, the RNAP-inhibitory activity result in series [2] (in words, refers to Table 1) is on record as “essentially full”. Also, in series [3], the “MIC50 Vero E6 ATCC CRL1586” value is more than 100 µg/mL. The MIC50 in series [4] was found to be 1.56 µg/mL (≈ 1.42 µM); in series [6], 0.049 µg/mL (≈ 0.0445 µM). Also, the antibacterial activity result in series [6] (in words, refers to Table 2) is listed as “essentially full”.
Consider `CCCCOC1(CO)/C=C/C(=O)NCC(=O)OC[C@@H]2NC(=O)[C@@H]([C@@H](C)O)NC(=O)[C@H](Cc3ccccc3)N(C)C(=O)[C@@H](NC(=O)[C@@H]([C@@H](C)CC)NC(=O)[C@@H](NC(=O)[C@H](C)[C@H](O)C(C)C)[C@@H](C)OC2=O)c2ccc(cc2)O[C@@H]1C` (stereo partly drawn) [Sal-OBu B (5B)] ({Pentanoyl(2R-Me,3R-OH,4-Me)}-T[d(aIle)][X6][NMeF][d(aThr)]S; ester 1-C; linker 3-6 via G), for which the IC50 in series [2] is more than 25 µM.
With `CNC(=O)[C@@H](C)[C@H]1C(=O)/C(=C(O)/C=C/C(C)=C/[C@@H](C)[C@H]2O[C@@]3(C)O[C@H](C=C[C@@]34CO4)[C@@H]2C)C(=O)N1[C@@H]1CC[C@H](O)[C@H](C)O1` [streptolydigin], the “cross-resistance” value in series [1] is given as “do not exhibit cross-resistance”.
Turning to `CC[C@H](C)[C@H]1NC(=O)[C@@H](NC(=O)[C@H](C)[C@H](O)C(C)C)[C@@H](C)OC(=O)[C@@H]2COC(=O)CNC(=O)/C=C/[C@](O)(CO)[C@@H](C)Oc3ccc(cc3)[C@H](NC1=O)C(=O)N(C)[C@@H](Cc1ccccc1)C(=O)N[C@H]([C@@H](C)O)C(=O)N2` [Sal-OH (4)] ({Pentanoyl(2R-Me,3R-OH,4-Me)}-T[d(aIle)][X3][NMeF][d(aThr)]S; ester 1-C; linker 3-6 via G), the 50% inhibitory concentration (IC50) in series [2] turned out to be 2 µM. Moreover, the MIC50 in series [4] is 25 µg/mL (≈ 24.1 µM); in series [6], 0.78 µg/mL (≈ 0.751 µM).
`CCCCOC[C@@]1(O)/C=C/C(=O)NCC(=O)OC[C@@H]2NC(=O)[C@@H]([C@@H](C)O)NC(=O)[C@H](Cc3ccccc3)N(C)C(=O)[C@@H](NC(=O)[C@@H]([C@@H](C)CC)NC(=O)[C@@H](NC(=O)[C@H](C)[C@H](O)C(C)C)[C@@H](C)OC2=O)c2ccc(cc2)O[C@@H]1C` [Sal-OBu A (5A)] ({Pentanoyl(2R-Me,3R-OH,4-Me)}-T[d(aIle)][X2][NMeF][d(aThr)]S; ester 1-C; linker 3-6 via G): inhibition in series [2] was half-maximal at 6 µM (IC50). Also, the MIC50 is 12.5 µg/mL (≈ 11.4 µM) in series [4] and 1.56 µg/mL (≈ 1.43 µM) in series [6].
As to `CC[C@H](C)[C@H]1NC(=O)[C@@H](NC(=O)[C@H](C)[C@H](O)C(C)C)[C@@H](C)OC(=O)[C@@H]2COC(=O)CNC(=O)/C=C/[C@](O)(CNCCCCCCNC(=O)OC(C)(C)C)[C@@H](C)Oc3ccc(cc3)[C@H](NC1=O)C(=O)N(C)[C@@H](Cc1ccccc1)C(=O)N[C@H]([C@@H](C)O)C(=O)N2` [Sal-NH(CH2)6NHBoc (9)] ({Pentanoyl(2R-Me,3R-OH,4-Me)}-T[d(aIle)][X4][NMeF][d(aThr)]S; ester 1-C; linker 3-6 via G), in series [2], inhibition was half-maximal at 1 µM (IC50). The MIC50 in series [4] stood at 25 µg/mL (≈ 20.2 µM); in series [6], 0.78 µg/mL (≈ 0.631 µM).
In turn, `CC[C@H](C)[C@H]1NC(=O)[C@@H](NC(=O)[C@H](C)[C@H](O)C(C)C)[C@@H](C)OC(=O)[C@@H]2COC(=O)CNC(=O)/C=C/[C@](O)(CNCCCNC(=O)OC(C)(C)C)[C@@H](C)Oc3ccc(cc3)[C@H](NC1=O)C(=O)N(C)[C@@H](Cc1ccccc1)C(=O)N[C@H]([C@@H](C)O)C(=O)N2` [Sal-NH(CH2)3NHBoc (7)] ({Pentanoyl(2R-Me,3R-OH,4-Me)}-T[d(aIle)][X5][NMeF][d(aThr)]S; ester 1-C; linker 3-6 via G) registered a 50% inhibitory concentration (IC50) in series [2] of 0.6 µM. The results for the MIC50 in series [4] and in series [6] were 100 µg/mL (≈ 83.7 µM) and 1.56 µg/mL (≈ 1.31 µM), respectively.
As for lipiarmycin, in series [1], the “cross-resistance” value was “do not exhibit cross-resistance”.
